Like-named read-outs stand apart in the source and are kept apart here.
How the values were obtained:
[1] = tested on: IL-8-induced neutrophil shape change in human whole blood; experiment: Whole blood neutrophil shape change assay (L); type: cell-based; conditions: IL-8, human whole blood, read-out: Assay L WBSC IC50
[2] = molecular target: T1, PI 3-kinase alpha (Homo sapiens, UniProt P42336); experiment: Kinase Glo Luminescent Kinase Assay (Kglo), assay A; type: biochemical; conditions: read-out: Assay A PI3Kα IC50
[3] = molecular target: PI 4-kinase beta (Homo sapiens, UniProt Q9UBF8); experiment: Kinase Glo Luminescent Kinase Assay (Kglo), assay D; type: biochemical; conditions: read-out: Assay D PI4Kβ IC50
[4] = molecular target: T2, PI 3-kinase gamma (Homo sapiens, UniProt P48736); experiment: TR-FRET Adapta assay, assay E; type: biochemical; conditions: read-out: Assay E PI3Kγ IC50
[5] = molecular target: T3, PI 3-kinase beta (Homo sapiens, UniProt P42338); experiment: Kinase Glo Luminescent Kinase Assay (Kglo), assay B; type: biochemical; conditions: read-out: Assay B PI3Kβ IC50
Target sequence in this assay (P42338 whole entry): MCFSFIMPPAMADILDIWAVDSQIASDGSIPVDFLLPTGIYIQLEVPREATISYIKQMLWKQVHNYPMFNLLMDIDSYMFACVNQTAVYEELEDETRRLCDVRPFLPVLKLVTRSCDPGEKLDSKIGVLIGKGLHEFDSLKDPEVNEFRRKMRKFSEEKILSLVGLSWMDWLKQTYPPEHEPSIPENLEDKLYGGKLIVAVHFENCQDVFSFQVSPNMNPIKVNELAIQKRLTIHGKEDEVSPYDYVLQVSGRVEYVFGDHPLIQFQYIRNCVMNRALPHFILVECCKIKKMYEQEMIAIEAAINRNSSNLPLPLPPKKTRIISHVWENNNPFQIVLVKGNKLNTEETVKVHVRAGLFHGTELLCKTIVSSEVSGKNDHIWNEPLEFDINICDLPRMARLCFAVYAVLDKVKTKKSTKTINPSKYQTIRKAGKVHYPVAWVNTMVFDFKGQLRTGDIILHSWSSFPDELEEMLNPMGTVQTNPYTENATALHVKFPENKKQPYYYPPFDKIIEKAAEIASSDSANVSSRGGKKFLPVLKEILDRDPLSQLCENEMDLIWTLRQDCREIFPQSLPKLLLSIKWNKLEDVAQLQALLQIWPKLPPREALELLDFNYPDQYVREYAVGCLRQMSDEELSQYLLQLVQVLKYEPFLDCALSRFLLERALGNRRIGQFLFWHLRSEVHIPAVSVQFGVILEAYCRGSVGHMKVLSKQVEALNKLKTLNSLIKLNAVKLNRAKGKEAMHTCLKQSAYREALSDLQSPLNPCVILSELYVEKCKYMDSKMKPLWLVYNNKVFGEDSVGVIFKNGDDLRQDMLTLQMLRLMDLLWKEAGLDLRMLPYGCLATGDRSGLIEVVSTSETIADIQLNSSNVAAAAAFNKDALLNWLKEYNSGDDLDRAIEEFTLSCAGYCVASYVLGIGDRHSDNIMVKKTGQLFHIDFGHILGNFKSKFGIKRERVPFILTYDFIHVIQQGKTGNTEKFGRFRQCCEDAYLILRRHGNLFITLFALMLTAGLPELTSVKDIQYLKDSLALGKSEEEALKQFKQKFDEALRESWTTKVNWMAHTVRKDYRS
Target sequence in this assay (P27986 461-568 partner): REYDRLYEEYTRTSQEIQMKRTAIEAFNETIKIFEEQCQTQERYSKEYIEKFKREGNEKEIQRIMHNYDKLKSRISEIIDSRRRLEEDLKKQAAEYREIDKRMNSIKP

[6] = molecular target: T4, PI 3-kinase delta (Homo sapiens, UniProt O00329); experiment: TR-FRET Adapta assay, assay F; conditions: read-out: Assay F PI3Kδ IC50
Target sequence in this assay (O00329 whole entry): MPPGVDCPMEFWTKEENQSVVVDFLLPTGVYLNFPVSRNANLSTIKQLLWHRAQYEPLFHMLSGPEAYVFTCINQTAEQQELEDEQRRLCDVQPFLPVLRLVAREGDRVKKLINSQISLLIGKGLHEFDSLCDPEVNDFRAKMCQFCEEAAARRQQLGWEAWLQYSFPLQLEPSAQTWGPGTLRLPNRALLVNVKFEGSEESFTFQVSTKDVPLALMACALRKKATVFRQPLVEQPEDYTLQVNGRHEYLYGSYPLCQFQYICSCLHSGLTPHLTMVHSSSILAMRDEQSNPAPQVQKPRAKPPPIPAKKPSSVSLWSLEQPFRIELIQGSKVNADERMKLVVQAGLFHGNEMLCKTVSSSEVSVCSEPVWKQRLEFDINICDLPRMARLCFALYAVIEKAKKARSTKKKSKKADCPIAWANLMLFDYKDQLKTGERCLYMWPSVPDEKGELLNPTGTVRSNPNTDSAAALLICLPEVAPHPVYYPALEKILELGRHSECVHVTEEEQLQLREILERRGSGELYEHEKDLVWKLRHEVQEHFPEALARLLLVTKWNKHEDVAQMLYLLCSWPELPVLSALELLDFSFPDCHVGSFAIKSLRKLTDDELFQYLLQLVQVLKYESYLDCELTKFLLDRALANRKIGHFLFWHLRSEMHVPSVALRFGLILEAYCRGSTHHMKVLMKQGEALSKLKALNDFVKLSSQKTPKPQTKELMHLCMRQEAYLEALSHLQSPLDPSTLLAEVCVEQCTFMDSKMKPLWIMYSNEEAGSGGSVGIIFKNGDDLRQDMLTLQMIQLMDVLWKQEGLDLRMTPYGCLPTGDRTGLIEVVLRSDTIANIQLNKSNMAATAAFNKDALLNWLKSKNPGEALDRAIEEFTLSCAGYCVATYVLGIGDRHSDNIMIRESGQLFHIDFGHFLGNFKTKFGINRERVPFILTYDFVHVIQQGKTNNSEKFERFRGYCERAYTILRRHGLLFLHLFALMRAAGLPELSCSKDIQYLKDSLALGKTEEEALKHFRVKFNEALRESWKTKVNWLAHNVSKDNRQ
Target sequence in this assay (P27986 461-568 partner): as the sequence (P27986 461-568 partner) above

[7] = Microsomal clearance assay (M); conditions: intrinsic clearance in rat liver microsomes
Description: The experiments were performed in 96-well glass plates at 37° C. on an automated Tecan EVO platform. Test compounds at a concentration of 10 mM in pure DMSO were diluted 1:1000 in water to 10 μM. […] Reactions were initiated by the addition of 150 μL of a cofactor solution containing 2 mM NADPH.

[8] = molecular target: T2, PI 3-kinase gamma; experiment: Cellular U937 AKT assay K1 (MSD); type: cell-based; conditions: U937 cells, K1 format; read-out: Assay K1 PI3Kγ IC50
[9] = molecular target: Vps34 (Homo sapiens, UniProt Q8NEB9); experiment: Kinase Glo Luminescent Kinase Assay (Kglo), assay C; type: biochemical; conditions: read-out: Assay C VPS34 IC50
[10] = molecular target: mTOR (Homo sapiens, UniProt P42345); experiment: Lanthascreen kinase binding assay, assay G; conditions: read-out: Assay G mTOR IC50
Description: Lanthascreen™ Kinase Binding Assay for mTOR (G)
Binding of an inhibitor to the kinase competes for binding with the tracer, resulting in a loss of FRET.
50 nL of compound dilutions were dispensed onto white 384-well small volume polystyrene plate.

[11] = molecular target: T4, PI 3-kinase delta; experiment: Cellular assay J1, p-Akt (S473) in Rat-1 cells, Surefire format; type: cell-based; conditions: non-asterisked data: version J1 (Surefire format), Rat-1 cells; read-out: Assay J PI3Kδ IC50
[12] = molecular target: T1, PI 3-kinase alpha; experiment: Cellular assay H1, p-Akt (S473) in Rat-1 cells, Surefire format; type: cell-based; conditions: non-asterisked data: version H1 (Surefire format), Rat-1 cells; read-out: Assay H PI3Kα IC50
[13] = molecular target: T3, PI 3-kinase beta; experiment: Cellular assay I1, p-Akt (S473) in Rat-1 cells, Surefire format; type: cell-based; conditions: non-asterisked data: version I1 (Surefire format), Rat-1 cells; read-out: Assay I PI3Kβ IC50

T2 sequence (P48736 whole entry): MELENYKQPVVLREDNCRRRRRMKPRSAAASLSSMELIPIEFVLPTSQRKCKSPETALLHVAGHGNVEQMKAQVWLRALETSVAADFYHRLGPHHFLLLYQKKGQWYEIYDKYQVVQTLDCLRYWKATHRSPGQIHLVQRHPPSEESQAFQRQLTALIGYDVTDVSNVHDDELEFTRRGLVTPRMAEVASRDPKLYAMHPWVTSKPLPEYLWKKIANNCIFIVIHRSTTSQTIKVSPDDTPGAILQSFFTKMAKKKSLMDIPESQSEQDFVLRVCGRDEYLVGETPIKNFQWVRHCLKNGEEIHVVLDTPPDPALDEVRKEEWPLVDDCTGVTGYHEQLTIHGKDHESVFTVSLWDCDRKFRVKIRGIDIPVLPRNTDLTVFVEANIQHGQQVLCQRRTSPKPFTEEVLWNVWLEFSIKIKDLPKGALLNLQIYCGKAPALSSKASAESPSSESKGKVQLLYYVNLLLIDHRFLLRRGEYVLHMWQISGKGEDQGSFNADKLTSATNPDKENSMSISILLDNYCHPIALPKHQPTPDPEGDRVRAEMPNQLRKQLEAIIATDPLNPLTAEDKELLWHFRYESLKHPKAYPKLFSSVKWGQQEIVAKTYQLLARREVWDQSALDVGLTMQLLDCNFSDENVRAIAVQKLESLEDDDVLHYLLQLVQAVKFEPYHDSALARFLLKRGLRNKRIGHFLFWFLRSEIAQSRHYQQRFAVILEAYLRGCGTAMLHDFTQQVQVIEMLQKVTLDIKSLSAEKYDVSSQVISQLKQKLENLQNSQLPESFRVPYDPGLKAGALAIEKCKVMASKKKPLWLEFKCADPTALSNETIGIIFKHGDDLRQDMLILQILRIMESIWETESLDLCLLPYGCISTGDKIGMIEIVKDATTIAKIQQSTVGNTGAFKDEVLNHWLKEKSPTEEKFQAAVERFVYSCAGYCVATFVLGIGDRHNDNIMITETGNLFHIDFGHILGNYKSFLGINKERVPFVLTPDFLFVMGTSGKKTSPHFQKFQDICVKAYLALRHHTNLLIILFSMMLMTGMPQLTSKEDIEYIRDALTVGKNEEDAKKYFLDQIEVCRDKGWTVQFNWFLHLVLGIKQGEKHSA
PI 4-kinase beta, sequence (Q9UBF8 whole entry): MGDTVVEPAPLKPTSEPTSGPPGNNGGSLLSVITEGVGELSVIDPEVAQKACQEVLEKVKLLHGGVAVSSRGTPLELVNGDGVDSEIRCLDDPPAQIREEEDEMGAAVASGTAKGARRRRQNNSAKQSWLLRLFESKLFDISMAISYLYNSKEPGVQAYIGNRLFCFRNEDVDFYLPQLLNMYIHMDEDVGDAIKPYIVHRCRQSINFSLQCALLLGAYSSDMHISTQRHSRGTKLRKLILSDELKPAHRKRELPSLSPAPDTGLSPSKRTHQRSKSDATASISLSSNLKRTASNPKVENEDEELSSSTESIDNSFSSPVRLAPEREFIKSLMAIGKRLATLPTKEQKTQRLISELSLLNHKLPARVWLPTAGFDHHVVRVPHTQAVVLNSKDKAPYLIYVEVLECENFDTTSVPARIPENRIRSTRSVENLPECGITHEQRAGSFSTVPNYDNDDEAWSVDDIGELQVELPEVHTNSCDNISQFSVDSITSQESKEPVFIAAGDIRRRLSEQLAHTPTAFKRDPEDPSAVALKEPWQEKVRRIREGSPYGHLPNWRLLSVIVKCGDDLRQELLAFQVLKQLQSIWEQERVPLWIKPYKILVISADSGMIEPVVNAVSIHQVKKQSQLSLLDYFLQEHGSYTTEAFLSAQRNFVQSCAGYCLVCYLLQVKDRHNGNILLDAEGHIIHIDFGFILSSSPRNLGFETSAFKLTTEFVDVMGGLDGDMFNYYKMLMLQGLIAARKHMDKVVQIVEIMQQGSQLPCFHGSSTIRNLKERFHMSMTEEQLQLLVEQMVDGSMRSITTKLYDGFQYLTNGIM
Vps34, sequence (Q8NEB9 whole entry, species assumed): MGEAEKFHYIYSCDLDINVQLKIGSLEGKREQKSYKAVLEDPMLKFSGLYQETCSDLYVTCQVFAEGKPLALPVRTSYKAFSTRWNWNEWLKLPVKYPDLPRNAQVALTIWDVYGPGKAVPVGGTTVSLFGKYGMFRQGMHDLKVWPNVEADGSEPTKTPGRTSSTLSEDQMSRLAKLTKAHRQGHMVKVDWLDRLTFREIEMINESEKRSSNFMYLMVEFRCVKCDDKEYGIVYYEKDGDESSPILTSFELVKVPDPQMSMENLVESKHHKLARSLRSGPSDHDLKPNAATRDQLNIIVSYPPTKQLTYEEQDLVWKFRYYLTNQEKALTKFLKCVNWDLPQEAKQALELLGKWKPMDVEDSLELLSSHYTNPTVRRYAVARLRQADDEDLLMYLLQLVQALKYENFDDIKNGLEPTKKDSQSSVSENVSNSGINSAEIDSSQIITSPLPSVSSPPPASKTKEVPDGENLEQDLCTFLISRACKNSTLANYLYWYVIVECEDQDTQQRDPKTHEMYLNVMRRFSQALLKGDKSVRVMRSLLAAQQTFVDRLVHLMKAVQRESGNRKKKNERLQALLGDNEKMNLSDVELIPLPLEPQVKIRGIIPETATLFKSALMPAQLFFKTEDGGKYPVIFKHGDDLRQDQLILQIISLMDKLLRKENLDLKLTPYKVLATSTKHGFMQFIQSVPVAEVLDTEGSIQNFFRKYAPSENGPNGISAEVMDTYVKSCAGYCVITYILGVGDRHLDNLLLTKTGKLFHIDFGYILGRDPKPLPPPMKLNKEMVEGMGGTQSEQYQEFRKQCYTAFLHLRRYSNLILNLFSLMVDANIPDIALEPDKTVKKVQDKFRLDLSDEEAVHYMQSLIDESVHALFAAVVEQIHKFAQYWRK

SMILES | IC50 ([1]; Homo sapiens, Neutrophil) | IC50 [2] | IC50 [3] | IC50 [4] | IC50 [5] | IC50 [6] | Assay M RLM CI(int) [7] | IC50 [8] | IC50 [9] | IC50 [10] | IC50 [11] | IC50 [12] | IC50 [1] | IC50 [13]
Cc1ccc(S(=O)(=O)NCCC(C)(C)O)cc1-c1cnc(N)c(-c2ccnn2C)n1 [Example 77, 3-(5-Amino-6-(1-methyl-1H-pyrazol-5-yl)pyrazin-2-yl)-N-(3-hydroxy-3-methylbutyl)-4-methylbenzenesulfonamide] | 881 nM | 230 nM | > 9100 nM | 34 nM | 4200 nM | 300 nM | 45 µL/min/mg | 134 nM | > 9100 nM | 5470 nM | – | – | – | –
Cc1ccc(S(=O)(=O)NCCC(C)(C)O)cc1-c1cnc(N)c(-c2cc[nH]n2)n1 [Example 119.42] | 2240 nM | 710 nM | 880 nM | 69 nM | 2340 nM | 360 nM | 41 µL/min/mg | 200 nM | > 9100 nM | > 9100 nM | – | – | – | –
Cc1ccc(S(=O)(=O)NCCC(C)(C)O)cc1-c1cnc(N)c(-c2ccc(CO)s2)n1 [Example 119.35] | 1020 nM | 80 nM | 740 nM | 13 nM | 940 nM | 70 nM | 78 µL/min/mg | 18 nM | > 9100 nM | 3900 nM | – | – | – | –
Cc1ccc(S(=O)(=O)NCC(C)(C)O)cc1-c1cnc(N)c(-c2nc(C3CC3)no2)n1 [Example 95, 3-(5-Amino-6-(3-cyclopropyl-1,2,4-oxadiazol-5-yl)pyrazin-2-yl)-N-(2-hydroxy-2-methylpropyl)-4-methylbenzenesulfonamide] | 1590 nM | 900 nM | > 9550 nM | 36 nM | 4100 nM | 730 nM | 53 µL/min/mg | 262 nM | > 9550 nM | 7400 nM | – | – | – | –
Cc1ccc(-c2nc(-c3cc(S(=O)(=O)NCCC(C)(C)O)ccc3C)cnc2N)s1 [Example 119.44] | 7080 nM | 120 nM | 760 nM | 99 nM | 1370 nM | 40 nM | 137 µL/min/mg | 42 nM | > 9100 nM | 3990 nM | – | – | – | –
Cc1ccc(S(=O)(=O)NCC(C)(C)CO)cc1-c1cnc(N)c(-c2cc(C3CC3)no2)n1 [Example 99, 3-(5-Amino-6-(3-cyclopropylisoxazol-5-yl)pyrazin-2-yl)-N-(3-hydroxy-2,2-dimethylpropyl)-4-methylbenzenesulfonamide] | 3520 nM | 740 nM | 2700 nM | 14 nM | 1650 nM | 140 nM | 74 µL/min/mg | 59 nM | 2950 nM | 4950 nM | – | – | – | –
Cc1ccc(S(=O)(=O)NCCC(C)(C)O)cc1-c1cnc(N)c(-n2cccn2)n1 [Example 62, 3-(5-Amino-6-(1H-pyrazol-1-yl)pyrazin-2-yl)-N-(3-hydroxy-3-methylbutyl)-4-methylbenzenesulfonamide] | 7910 nM | 680 nM | 3680 nM | 56 nM | 1010 nM | 210 nM | 155 µL/min/mg | 110 nM | > 9100 nM | > 9100 nM | 970 nM | 1440 nM | – | –
Cc1ccc(S(=O)(=O)NCC(F)F)cc1-c1cnc(N)c(-n2cncn2)n1 [Example 34, 3-(5-Amino-6-[1,2,4]triazol-1-yl-pyrazin-2-yl)-N-(2,2-difluoro-ethyl)-4-methyl-benzenesulfonamide] | 805 nM | 700 nM | 3800 nM | 74 nM | 2500 nM | 2900 nM | 52 µL/min/mg | 137 nM | > 10000 nM | 2500 nM | – | – | – | –
Cc1ccc(S(=O)(=O)NCC(=O)C(C)(C)C)cc1-c1cnc(N)c(-n2cncn2)n1 [Example 36, 3-(5-Amino-6-[1,2,4]triazol-1-yl-pyrazin-2-yl)-N-(3,3-dimethyl-2-oxo-butyl)-4-methyl-benzenesulfonamide] | 478 nM | 160 nM | 8000 nM | 17 nM | 850 nM | 110 nM | 710 µL/min/mg | 51 nM | > 10000 nM | 250 nM | – | – | – | –
Cc1ccc(S(=O)(=O)NC2CC3(CC(O)C3)C2)cc1-c1cnc(N)c(-c2cn(C)nc2C)n1 (single isomer, unassigned) [Example 9a, (R)-3-[5-Amino-6-(1,3-dimethyl-1H-pyrazol-4-yl)-pyrazin-2-yl]-N-(6-hydroxy-spiro[3.3]hept-2-yl)-4-methyl-benzenesulfonamide or (S)-3-[5-Amino-6-(1,3-dimethyl-1H-pyrazol-4-yl)-pyrazin-2-yl]-N-(6-hydroxy-spiro[3.3]hept-2-yl)-4-methyl-benzenesulfonamide] | – | – | – | 15 nM | 540 nM | 200 nM | 34 µL/min/mg | 40 nM | > 10000 nM | 8100 nM | 3530 nM | – | 327 nM | > 10000 nM
Cc1cc(C)n(-c2nc(-c3cc(S(=O)(=O)NCC(C)(C)O)ccc3C)cnc2N)n1 [Example 48, 3-(5-Amino-6-(3,5-dimethyl-1H-pyrazol-1-yl)pyrazin-2-yl)-N-(2-hydroxy-2-methylpropyl)-4-methyl benzenesulfonamide] | 1530 nM | 2600 nM | > 10000 nM | 81 nM | 7300 nM | 920 nM | 59 µL/min/mg | 487 nM | > 10000 nM | > 10000 nM | – | – | – | –
Cc1ccc(S(=O)(=O)NC2(CO)CC2)cc1-c1cnc(N)c(-n2cncn2)n1 [Example 98, 3-(5-Amino-6-(1H-1,2,4-triazol-1-yl)pyrazin-2-yl)-N-(1-(hydroxymethyl)cyclopropyl)-4-methylbenzenesulfonamide] | 4170 nM | 1700 nM | 2500 nM | 38 nM | 1400 nM | 310 nM | 31 µL/min/mg | 200 nM | > 9100 nM | > 9100 nM | – | – | – | –
Cc1ccc(S(=O)(=O)NCC(C)(F)F)cc1-c1cnc(N)c(-n2cncn2)n1 [Example 127.43] | 1640 nM | 560 nM | 2900 nM | 95 nM | 1700 nM | 3400 nM | – | 275 nM | > 10000 nM | 8800 nM | – | – | – | –
Cc1ccc(S(=O)(=O)NCC(C)(C)O)cc1-c1cnc(N)c(-c2cc(C3CC3)no2)n1 [Example 79, 3-(5-Amino-6-(3-cyclopropylisoxazol-5-yl)pyrazin-2-yl)-N-(2-hydroxy-2-methylpropyl)-4-methylbenzenesulfonamide] | 3210 nM | 280 nM | 3900 nM | 22 nM | 1200 nM | 370 nM | 63 µL/min/mg | 53 nM | 7600 nM | 6500 nM | – | – | – | –
Cc1ccc(S(=O)(=O)NCCC(C)(C)O)cc1-c1cnc(N)c(-c2ccc(C3CC3)s2)n1 [Example 119.46] | 9190 nM | 250 nM | 610 nM | 110 nM | – | 70 nM | 122 µL/min/mg | 81 nM | > 9100 nM | 6700 nM | – | – | – | –
Cc1csc(-c2nc(-c3cc(S(=O)(=O)NCC(C)(C)O)ccc3C)cnc2N)n1 [Example 80, 3-(5-Amino-6-(4-methylthiazol-2-yl)pyrazin-2-yl)-N-(2-hydroxy-2-methylpropyl)-4-methylbenzenesulfonamide] | 2880 nM | 250 nM | 4550 nM | 77 nM | 1700 nM | 400 nM | 106 µL/min/mg | 98 nM | > 10000 nM | > 10000 nM | – | – | – | –
Cc1ccc(S(=O)(=O)NCC2(O)CC2)cc1-c1cnc(N)c(-n2cncn2)n1 [Example 28, 3-(5-Amino-6-[1,2,4]triazol-1-yl-pyrazin-2-yl)-N-(1-hydroxy-cyclopropylmethyl)-4-methyl-benzenesulfonamide] | 759 nM | 680 nM | 8900 nM | 26 nM | 4300 nM | 560 nM | 34 µL/min/mg | 280 nM | > 9100 nM | > 9100 nM | – | – | – | –

Source: patent US10004732B2 (Novartis AG, priority 2014, dated 2018)
